pIC50, pKi: −log10 of the molar value.
Experiments:
[1] = biological target: T1, Delta-type opioid receptor (Homo sapiens, UniProt P41143); assay: Percent inhibition against human Opioid receptor delta 1 using [3H]diprenorphine as radio ligand; details: concentration not given here
[2] = biological target: Cytochrome P450 2D6 (Homo sapiens, UniProt P10635); assay: Inhibition of cytochrome P450 2D6 was determined using MAMC (7-methoxy-4-aminomethyl-coumarin) as substrate; type: ADME
[3] = biological target: T2, Mu-type opioid receptor (Homo sapiens, UniProt P35372); assay: Percent inhibition against human Opioid receptor mu 1 using [3H]diprenorphine as radio ligand; set-up: concentration or dose not given beside the values; details: concentration not given here
[4] = biological target: T2, Mu-type opioid receptor; assay: Inhibitory constant against human Opioid receptor mu 1 using [3H]diprenorphine as radio ligand
[5] = biological target: T1, Delta-type opioid receptor; assay: Inhibitory constant against human Opioid receptor delta 1 using [3H]diprenorphine as radio ligand
[6] = biological target: CYP2D6 (Homo sapiens, UniProt P10635); assay: Inhibition of cytochrome P450 2D6 activity was measured by the inhibition of HAMC production at the concentration of 10 uM; type: ADME
[7] = biological target: T1, Delta-type opioid receptor; assay: Percent inhibition constant against human Opioid receptor delta 1 using [3H]diprenorphine as radio ligand; details: concentration not given here

Sequence of Cytochrome P450 2D6 (P10635 whole entry): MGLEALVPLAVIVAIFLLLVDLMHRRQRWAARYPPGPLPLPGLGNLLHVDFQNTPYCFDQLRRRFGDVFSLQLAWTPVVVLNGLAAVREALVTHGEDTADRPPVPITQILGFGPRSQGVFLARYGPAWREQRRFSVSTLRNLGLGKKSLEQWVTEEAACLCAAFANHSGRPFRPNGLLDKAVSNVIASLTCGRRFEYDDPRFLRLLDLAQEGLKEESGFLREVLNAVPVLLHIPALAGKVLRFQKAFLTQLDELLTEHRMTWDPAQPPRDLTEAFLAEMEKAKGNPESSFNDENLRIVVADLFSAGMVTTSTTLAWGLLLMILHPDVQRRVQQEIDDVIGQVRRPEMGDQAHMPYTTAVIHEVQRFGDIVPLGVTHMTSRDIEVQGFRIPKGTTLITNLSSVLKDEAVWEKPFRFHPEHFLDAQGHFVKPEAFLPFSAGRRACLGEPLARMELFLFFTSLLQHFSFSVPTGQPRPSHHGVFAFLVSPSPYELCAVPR
Sequence of CYP2D6 (P10635 whole entry): as above
T1 sequence (P41143 whole entry): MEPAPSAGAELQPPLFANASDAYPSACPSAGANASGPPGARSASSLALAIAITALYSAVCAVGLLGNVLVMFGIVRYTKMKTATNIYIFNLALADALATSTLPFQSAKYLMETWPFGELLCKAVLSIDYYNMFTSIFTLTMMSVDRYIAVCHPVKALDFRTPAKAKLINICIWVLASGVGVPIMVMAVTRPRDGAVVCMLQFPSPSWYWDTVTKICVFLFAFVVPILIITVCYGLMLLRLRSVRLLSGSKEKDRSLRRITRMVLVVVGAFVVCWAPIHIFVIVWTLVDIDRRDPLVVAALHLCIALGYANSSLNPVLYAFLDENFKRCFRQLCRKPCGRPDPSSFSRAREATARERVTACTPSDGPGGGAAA
T2 sequence (P35372 whole entry): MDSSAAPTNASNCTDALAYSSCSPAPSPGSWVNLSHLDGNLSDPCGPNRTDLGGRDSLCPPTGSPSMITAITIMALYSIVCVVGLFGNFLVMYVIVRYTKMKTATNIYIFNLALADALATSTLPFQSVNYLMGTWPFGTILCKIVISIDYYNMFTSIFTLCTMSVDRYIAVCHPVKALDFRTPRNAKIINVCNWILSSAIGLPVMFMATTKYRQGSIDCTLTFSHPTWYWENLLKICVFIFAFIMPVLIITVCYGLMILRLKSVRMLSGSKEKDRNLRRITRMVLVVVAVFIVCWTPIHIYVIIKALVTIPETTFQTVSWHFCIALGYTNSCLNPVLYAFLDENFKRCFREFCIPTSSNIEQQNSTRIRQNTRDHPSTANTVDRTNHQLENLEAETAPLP

SMILES	pIC50 [2]	pKi [4]	pKi [5]	further results
CN(C(=O)Cc1ccc(CN)cc1)[C@H](CN1CCCC1)c1ccccc1	6.49	–	–	inhibition [1]: 17%; inhibition [3]: 41%
CCCS(=O)(=O)NCc1ccc(CC(=O)N(C)[C@H](CN2CC[C@H](O)C2)c2ccccc2)cc1	–	5.98	6.91	inhibition at 10 µM [6]: 27%
CCCCS(=O)(=O)NCc1ccc(CC(=O)N(C)[C@H](CN2CC[C@H](O)C2)c2ccccc2)cc1	5.10	5.98	6.78	–
CN(C(=O)Cc1cccc(CNS(C)(=O)=O)c1)[C@H](CN1CCCC1)c1ccccc1	5.74	–	–	–
CN(C(=O)Cc1ccc(CNS(C)(=O)=O)cc1)[C@H](CN1CCCC1)c1ccccc1	–	6.36	5.95	inhibition at 10 µM [6]: 45%
CC(=O)NCc1cccc(CC(=O)N(C)[C@H](CN2CCCC2)c2ccccc2)c1	6.22	–	–	inhibition [1]: 15%; inhibition [3]: 21%
CN(C(=O)Cc1ccc(CNS(=O)(=O)Cc2cccs2)cc1)[C@H](CN1CC[C@H](O)C1)c1ccccc1	5.32	5.97	7.26	–
CN(C(=O)Cc1ccccc1)[C@H](CN1CCCC1)c1ccccc1	7.34	–	–	–
CCS(=O)(=O)NCc1ccc(CC(=O)N(C)[C@H](CN2CC[C@H](O)C2)c2ccccc2)cc1	–	5.99	–	inhibition at 10 µM [6]: 31%
CC(=O)NCc1ccc(CC(=O)N(C)[C@H](CN2CCCC2)c2ccccc2)cc1	5.96	–	–	inhibition [1]: 0%; inhibition [3]: 26%
CNC(=O)NCc1ccc(CC(=O)N(C)[C@H](CN2CCCC2)c2ccccc2)cc1	5.91	–	5.89	inhibition [3]: 43%
CN(C(=O)Cc1ccc(CCNS(C)(=O)=O)cc1)[C@H](CN1CC[C@H](O)C1)c1ccccc1	–	–	6.97	inhibition at 10 µM [6]: 48%
CN(C(=O)Cc1cccc(CN)c1)[C@H](CN1CCCC1)c1ccccc1	6.97	5.64	–	inhibition [1]: 1.4%
CN(C(=O)Cc1ccc2c(c1)CN(S(C)(=O)=O)C2)[C@H](CN1CCCC1)c1ccccc1	5.98	7.13	5.83	–
Cc1ccc(S(=O)(=O)NCc2ccc(CC(=O)N(C)[C@H](CN3CC[C@H](O)C3)c3ccccc3)cc2)cc1	5.25	–	7.57	–
CC(=O)NCc1ccccc1CC(=O)N(C)[C@H](CN1CCCC1)c1ccccc1	7.46	5.91	6.05	–
CN(C(=O)Cc1ccc(CCCNS(C)(=O)=O)cc1)[C@H](CN1CC[C@H](O)C1)c1ccccc1	–	–	–	inhibition at 10 µM [6]: 46%
CN(C(=O)Cc1ccc(NS(C)(=O)=O)cc1)[C@H](CN1CC[C@H](O)C1)c1ccccc1	5.26	6.98	6.75	–
CN(C(=O)Cc1ccccc1CN)[C@H](CN1CCCC1)c1ccccc1	7.74	–	–	inhibition [7]: 37%; inhibition [3]: 29%
CN(C(=O)Cc1ccc(CNS(=O)(=O)Cc2ccccc2)cc1)[C@H](CN1CC[C@H](O)C1)c1ccccc1	5.24	–	6.76	–
CN(C(=O)Cc1ccc(CNS(=O)(=O)c2ccc(F)cc2)cc1)[C@H](CN1CC[C@H](O)C1)c1ccccc1	5.24	5.97	7.20	–
CN(C(=O)Cc1ccc(Cl)c(Cl)c1)[C@H](CN1CCCC1)c1ccccc1 [ICI-199,441]	7.59	–	–	–
CN(C(=O)Cc1ccccc1CNS(C)(=O)=O)[C@H](CN1CCCC1)c1ccccc1	6.53	6.24	6.05	–
CN(C(=O)Cc1ccc(CNS(=O)(=O)c2ccccc2)cc1)[C@H](CN1CC[C@H](O)C1)c1ccccc1	5.36	–	–	–
CN(C(=O)Cc1ccc(CNS(C)(=O)=O)cc1)[C@H](CN1CC[C@H](O)C1)c1ccccc1	–	6.82	6.78	inhibition at 10 µM [6]: 25%
CC(C)S(=O)(=O)NCc1ccc(CC(=O)N(C)[C@H](CN2CC[C@H](O)C2)c2ccccc2)cc1	–	–	–	inhibition at 10 µM [6]: 27%
